Test results as given in patent publication US20100197650A1, “COMPOSITIONS AND METHODS OF TREATMENT COMPRISING CEFTAROLINE” (FOREST LABORATORIES HOLDINGS LTD., priority 2008, published 2010).
≈ marks a conversion by molar mass, not a printed value. Like-named read-outs stand apart in the source and are kept apart here.

How the values were obtained:
[1] = test system: clinical Enterobacteriacae and P. aeruginosa isolates; test: Susceptibility testing (Example 2), summary over species; assay type: cell-based; conditions: selected clinical isolates, except for 4 E. cloacae
[2] = test system: P. aeruginosa; test: Susceptibility testing MIC/MBC, broth microdilution (Example 2); assay type: cell-based, Pseudomonas aeruginosa; conditions: for MBC / MIC: Pseudomonas aeruginosa; for MBC: read-out: MBC; for MIC: read-out: MIC
[3] = test system: ESBL-producing Klebsiella pneumoniae; test: as above; assay type: cell-based; conditions: for MBC / MIC: Klebsiella pneumoniae; for MBC: read-out: MBC; for MIC: read-out: MIC
[4] = test system: HA-MRSA; test: Susceptibility testing MIC/MBC, broth microdilution (Example 3); assay type: cell-based, Staphylococcus aureus; conditions: for MIC: read-out: MIC; for MIC50: read-out: MIC50
Method: Two hundred clinical HA-MRSA isolates, harboring the SCCmecIV type, were evaluated for susceptibility testing. […] Four strains, including 1 hVISA and 1 VISA, characterized by population analysis profile and Macro Etest were selected for time-kill analysis.
Trypose soy agar (TSA; Difco, Detroit, Mich.) was used for colony counting.
Minimum inhibitory concentrations (MIC) and minimum bactericidal concentrations (MBC) were determined by broth microdilution for all antimicrobials, according to the Clinical and Laboratory Standards Institute (CLSI) guidelines (Clinical and Laboratory Standards Institute. 2006. Methods for Dilution Antimicrobial Susceptibility Tests for Bacteria That Grow Aerobically; Approved Standard. 7th ed. Wayne, Pa.: CLSI). MBC values were determined by plating of aliquots of 5 μL from clear wells onto TSA. All susceptibility testing were performed in duplicate.

[5] = test system: Pseudomonas aeruginosa; test: MIC, broth microdilution (Example 1); assay type: cell-based
How it was run: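 Frozen clinical or ATCC isolates are subcultured overnight on agar at 35 °C. Agents are serially diluted 2-fold in DMSO, then added to broth at 5% volume: HTM for Haemophilus, MH II for the rest, plus 2% lysed horse blood for pneumococci. Plates are incubated ~20 h at 35 °C and read visually.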

[6] = test system: Streptococcus pyogenes; test: MIC, broth microdilution (Example 1); assay type: cell-based; conditions: Streptococcus pyogenes, read-out: MIC
How it was run: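 Following the CLSI M7-A7 microdilution standard, each agent alone was tested across seven 2-fold steps. The drugs were in DMSO, and the medium was HTM, MH II broth, or MH II broth with 2% lysed horse blood depending on species. MIC was read visually after ~20 h at 35 °C.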

[7] = test system: AmpC-derepressed Enterobacter cloacae; test: microbe, parasite or virus in culture; assay type: cell-based; conditions: for MBC / MIC: Enterobacter cloacae
[8] = P. aeruginosa (20) clinical isolates
[9] = K. pneumonia (10) clinical isolates
[10] = HA-MRSA isolates of origin Blood
[11] = HA-MRSA isolates of origin Lung
[12] = HA-MRSA isolates of origin Skin
[13] = HA-MRSA isolates of origin Unknown
[14] = HA-MRSA isolates of origin Urine
[15] = E. cloacae (10) clinical isolates

CCO/N=C(\C(=O)N[C@@H]1C(=O)N2C(C(=O)[O-])=C(Sc3nc(-c4cc[n+](C)cc4)cs3)CS[C@H]12)c1nsc(N)n1 [Ceftaroline]
MIC range [1]: 2 to 1024 µg/mL
MBC range [2, 8]: 16 to 256 µg/mL
MIC range [2, 8]: 8 to 256 µg/mL
MBC ([2]; P. aeruginosa isolate no. 796): 32 µg/mL (≈ 52.9 µM)
MIC ([2]; P. aeruginosa isolate no. 796): 16 µg/mL (≈ 26.5 µM)
MBC ([2]; P. aeruginosa isolate no. 956): 256 µg/mL (≈ 423 µM)
MIC ([2]; P. aeruginosa isolate no. 956): 128 µg/mL (≈ 212 µM)
MBC ([2]; P. aeruginosa isolate no. 1019): 64 µg/mL (≈ 106 µM)
MIC ([2]; P. aeruginosa isolate no. 1019): 32 µg/mL (≈ 52.9 µM)
MBC ([2]; P. aeruginosa isolate no. 1037): 16 µg/mL (≈ 26.5 µM)
MIC ([2]; P. aeruginosa isolate no. 1037): 8 µg/mL (≈ 13.2 µM)
MBC range [3, 9]: 32 to 1024 µg/mL
MIC range [3, 9]: 8 to 1024 µg/mL
MBC ([3]; K. pneumonia isolate no. 5427): 16 µg/mL (≈ 26.5 µM)
MIC ([3]; K. pneumonia isolate no. 5427): 4 µg/mL (≈ 6.61 µM)
MBC ([3]; K. pneumonia isolate no. 5436): 1020 µg/mL (≈ 1690 µM)
MIC ([3]; K. pneumonia isolate no. 5436): 1020 µg/mL (≈ 1690 µM)
% of Isolates with MBC 0.5 μg/mL ([4]; 200 HA-MRSA isolates): 22%
% of Isolates with MBC 1 μg/mL ([4]; 200 HA-MRSA isolates): 62.5%
% of Isolates with MBC 2 μg/mL ([4]; 200 HA-MRSA isolates): 15.5%
% of Isolates with MIC 0.25 μg/mL ([4]; 200 HA-MRSA isolates): 4%
% of Isolates with MIC 0.5 μg/mL ([4]; 200 HA-MRSA isolates): 35.5%
% of Isolates with MIC 1 μg/mL ([4]; 200 HA-MRSA isolates): 57%
% of Isolates with MIC 2 μg/mL ([4]; 200 HA-MRSA isolates): 1.5%
MBC range ([4]; 200 HA-MRSA isolates): 0.5 to 2 µg/mL
MIC range ([4]; 200 HA-MRSA isolates): 0.25 to 2 µg/mL
MBC range [4, 10]: 0.5 to 2 µg/mL
MIC range [4, 10]: 0.25 to 2 µg/mL
MBC range [4, 11]: 0.5 to 2 µg/mL
MIC range [4, 11]: 0.25 to 2 µg/mL
MBC range [4, 12]: 0.5 to 2 µg/mL
MIC range [4, 12]: 0.5 to 2 µg/mL
MBC range [4, 13]: 0.5 to 2 µg/mL
MIC range [4, 13]: 0.5 to 1 µg/mL
MBC range [4, 14]: 0.5 to 2 µg/mL
MIC range [4, 14]: 0.5 to 1 µg/mL
MBC ([4]; Staphylococcus aureus, MRSA / VISA, HA-MRSA isolate R2303 (VISA), read-out: MBC): 0.25 µg/mL (≈ 0.413 µM)
MIC ([4]; Staphylococcus aureus, MRSA / VISA, HA-MRSA isolate R2303 (VISA)): 0.25 µg/mL (≈ 0.413 µM)
MIC50 ([4]; Staphylococcus aureus, MRSA, 200 HA-MRSA isolates): 1 µg/mL (≈ 1.65 µM)
MBC ([4]; Staphylococcus aureus, MRSA, HA-MRSA isolate R3804, read-out: MBC): 0.25 µg/mL (≈ 0.413 µM)
MIC ([4]; Staphylococcus aureus, MRSA, HA-MRSA isolate R3804): 0.25 µg/mL (≈ 0.413 µM)
MBC ([4]; Staphylococcus aureus, MRSA, HA-MRSA isolate R3875 (hVISA), read-out: MBC): 1 µg/mL (≈ 1.65 µM)
MIC ([4]; Staphylococcus aureus, MRSA, HA-MRSA isolate R3875 (hVISA)): 1 µg/mL (≈ 1.65 µM)
MBC ([4]; Staphylococcus aureus, MRSA, HA-MRSA isolate R4039, read-out: MBC): 0.5 µg/mL (≈ 0.827 µM)
MIC ([4]; Staphylococcus aureus, MRSA, HA-MRSA isolate R4039): 0.5 µg/mL (≈ 0.827 µM)
MBC ([4]; Staphylococcus aureus, MRSA, HA-MRSA isolates of origin Blood, read-out: MBC50): 1 µg/mL (≈ 1.65 µM)
MIC50 ([4]; Staphylococcus aureus, MRSA, HA-MRSA isolates of origin Blood): 1 µg/mL (≈ 1.65 µM)
MBC ([4]; Staphylococcus aureus, MRSA, HA-MRSA isolates of origin Lung, read-out: MBC50): 1 µg/mL (≈ 1.65 µM)
MIC50 ([4]; Staphylococcus aureus, MRSA, HA-MRSA isolates of origin Lung): 1 µg/mL (≈ 1.65 µM)
MBC ([4]; Staphylococcus aureus, MRSA, HA-MRSA isolates of origin Skin, read-out: MBC50): 1 µg/mL (≈ 1.65 µM)
MIC50 ([4]; Staphylococcus aureus, MRSA, HA-MRSA isolates of origin Skin): 1 µg/mL (≈ 1.65 µM)
MBC ([4]; Staphylococcus aureus, MRSA, HA-MRSA isolates of origin Unknown, read-out: MBC50): 1 µg/mL (≈ 1.65 µM)
MIC50 ([4]; Staphylococcus aureus, MRSA, HA-MRSA isolates of origin Unknown): 1 µg/mL (≈ 1.65 µM)
MBC ([4]; Staphylococcus aureus, MRSA, HA-MRSA isolates of origin Urine, read-out: MBC50): 1 µg/mL (≈ 1.65 µM)
MIC50 ([4]; Staphylococcus aureus, MRSA, HA-MRSA isolates of origin Urine): 0.5 µg/mL (≈ 0.827 µM)
MIC90 ([4]; Staphylococcus aureus, 200 HA-MRSA isolates, read-out: MIC90): 1 µg/mL (≈ 1.65 µM)
MIC ([5]; P. aeruginosa 2555): 32 µg/mL
MIC ([5]; P. aeruginosa 2559): 16 µg/mL
MIC ([6]; S. pyogenes 0717): 0.008 µg/mL
MIC ([6]; S. pyogenes 0722): 0.008 µg/mL
MBC range [7, 15]: 0.125 to 1024 µg/mL
MIC range [7, 15]: 0.125 to 512 µg/mL
MBC ([7]; E. cloacae isolate no. 4073): 512 µg/mL (≈ 847 µM)
MIC ([7]; E. cloacae isolate no. 4073): 256 µg/mL (≈ 423 µM)
MBC ([7]; E. cloacae isolate no. 5420): 128 µg/mL (≈ 212 µM)
MIC ([7]; E. cloacae isolate no. 5420): 64 µg/mL (≈ 106 µM)
